# Where two headings read alike, the source gives them in different places.
# How the values were obtained:
# ALR2 [1] = system: ALR2; set-up: method as in ref 80 (Racowitz et al.); settings: ref 80 (Racowitz et al.); cited from earlier work
# ALR2 enzyme = ALR2 enzyme (Ovis aries, UniProt A0ACI6S8R2); experiment: ALR2 enzyme activity / in vitro inhibition (NADPH absorbance decrease at 340 nm, DL-glyceraldehyde substrate); assay type: biochemical
# Method: By tracking the shift in absorbance at 340 nm brought on by a decrease in NADPH, ALR2 activity was ascertained. The reaction mixture for ALR2 activity consists of 0.8 M Na‐phosphate buffer (pH = 5.5), NADPH (0.11 mM), DL‐glyceraldehyde (4.7 mM), and enzyme solution [36, 37]. […] Every measurement was taken three times.
# The K I values and inhibition types were ascertained using the Lineweaver and Burk curves (Figure 5).
# ALR2 [2] = system: ALR2; set-up: method as in ref 79 (Sever et al.); settings: ref 79 (Sever et al.); cited from earlier work
Compound,Inhibition type (ALR2 enzyme; Lineweaver-Burk curves),also measured
O=C(O)Cc1nn(Cc2ccc(Br)cc2F)c(=O)c2ccccc12 [ponalrestat],,IC50 (ALR2 [1]): 80 nM
"Fc1ccc(-c2ccon2)cc1 [e, 3‐(4‐fluorophenyl) isoxazole]",Competitive,
"COc1ccc(-c2ccno2)cc1 [h, 5‐(4‐methoxyphenyl) isoxazole]",Competitive,
O=c1c(O)c(-c2ccc(O)c(O)c2)oc2cc(O)cc(O)c12 [quercetin],,IC50 (ALR2 [2]): 3230 nM
"Clc1ccc(-c2ccon2)cc1 [b, 3‐(4‐chlorophenyl) isoxazole]",Competitive,
"CC(/C=C1\SC(=S)N(CC(=O)O)C1=O)=C\c1ccccc1 [EPR, Epalrestat, reference compound]",,Inhibition type (ALR2 enzyme): Noncompetitive
"Clc1ccc(-c2ccno2)cc1 [g, 5‐(4‐chlorophenyl) isoxazole]",Competitive,
"Fc1ccc(-c2ccno2)cc1 [f, 5‐(4‐fluorophenyl) isoxazole]",Competitive,
O=C1NC(=O)[C@@]2(CCOc3ccc(F)cc32)N1 [sorbinil],,IC50 (ALR2 [1]): 3420 ± 20 nM
"Brc1ccc(-c2ccon2)cc1 [d, 3‐(4‐bromophenyl) isoxazole]",Competitive,
"O=[N+]([O-])c1ccc(-c2ccon2)cc1 [Compound c, 3‐(4‐nitrophenyl) isoxazole]",Competitive,
Isoxazole,Noncompetitive,"Ki (ALR2 enzyme; mean ± standard error of mean, Lineweaver-Burk curves): 89.5 ± 4.68 nM; IC50 (ALR2 enzyme; mean ± standard error of mean, from Activity (%) vs compound graphs): 43 ± 1.64 nM"
